Test results as given in publication PMC7734590, “Identification of a Selective RelA Inhibitor Based on DSE-FRET Screening Methods” (International Journal of Molecular Sciences, 2020).
Values joined by “and” are separate entries in the source; they are usually repeats but may differ in a detail not shown here. Identical values can stand only once. Like-named read-outs stand apart in the source and are kept apart here.

Columns and labels:
[1] = target: RelA (Homo sapiens, UniProt Q04206); experiment: DSE-FRET RelA–DNA binding inhibition; format: biochemical; set-up: Kinetic assay RelA Inhibition % ΔRFU(60 min-0 min) / RelA HTS % Inhibition / RelA Retest % Inhibition Run1 / RelA Retest % Inhibition Run2 / RelA Retest % Inhibition Avg. / Kinetic assay RelA % Inhibition ΔRFU(60 min-0 min): dose or concentration left out as unconfirmed; conditions: for Hit Judgement of: RelA: retest of known drugs, 1 = judged hit; for RelA Retest % Inhibition Avg.: Retest average of Run1 and Run2
RelA, sequence (Q04206 19-306 limits assumed): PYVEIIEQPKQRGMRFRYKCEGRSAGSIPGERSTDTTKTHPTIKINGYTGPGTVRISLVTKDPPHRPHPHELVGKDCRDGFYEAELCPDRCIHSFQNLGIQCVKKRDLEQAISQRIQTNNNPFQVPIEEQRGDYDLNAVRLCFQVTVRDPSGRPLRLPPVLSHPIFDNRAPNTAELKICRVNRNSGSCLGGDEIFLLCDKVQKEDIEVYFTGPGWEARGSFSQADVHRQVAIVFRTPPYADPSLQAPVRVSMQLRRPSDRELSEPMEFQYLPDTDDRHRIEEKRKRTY
Method: Plate-based (384 scale) DNA-binding experiments were carried out with 0.1 µL of 2 mM or 1 mg/mL compound, 2 µL of 80 nM NF-D1 (consisting of NF-01F and NF-14D), 1 µL of 20 ng/µL poly dI-dC, and 6.9 µL of 3.2 pmol protein in binding buffer (10 mM 4-(2-hydroxyethyl)-1-piperazineethanesulfonic acid (HEPES)–NaOH pH 7.9, 50 mM KCl, 0.1 mM ethylenediaminetetraacetic acid (EDTA), 2.5 mM dithiothreitol (DTT), 10% glycerol, and 0.05% Nonidet P40). The plates were incubated for 30 min at room temperature, after which 10 µL of NF-D2 (consisting of NF-02 and NF-13) was added. The plates were centrifuged at 1000 rpm for 30 s, followed by shaking for 30 s using a plate shaker (Biotec). Fluorescence was measured at 528 nm, after excitation at 485 nm, using a multiplate reader (Biotec) over a period of 60 min.

[2] = target: T1, p52 (Homo sapiens, UniProt Q00653); experiment: DSE-FRET p52–DNA binding inhibition; format: biochemical; set-up: p52 Retest % Inhibition Run2 / p52 Retest % Inhibition Avg. / Kinetic assay p52 Inhibition % ΔRFU(60 min-0 min) / p52 HTS % Inhibition / p52 Retest % Inhibition Run1: dose or concentration left out as unconfirmed; conditions: for Hit Judgement of: p52: retest of known drugs, 1 = judged hit; for p52 Retest % Inhibition Avg.: Retest average of Run1 and Run2
T1 sequence (Q00653 1-454 limits assumed): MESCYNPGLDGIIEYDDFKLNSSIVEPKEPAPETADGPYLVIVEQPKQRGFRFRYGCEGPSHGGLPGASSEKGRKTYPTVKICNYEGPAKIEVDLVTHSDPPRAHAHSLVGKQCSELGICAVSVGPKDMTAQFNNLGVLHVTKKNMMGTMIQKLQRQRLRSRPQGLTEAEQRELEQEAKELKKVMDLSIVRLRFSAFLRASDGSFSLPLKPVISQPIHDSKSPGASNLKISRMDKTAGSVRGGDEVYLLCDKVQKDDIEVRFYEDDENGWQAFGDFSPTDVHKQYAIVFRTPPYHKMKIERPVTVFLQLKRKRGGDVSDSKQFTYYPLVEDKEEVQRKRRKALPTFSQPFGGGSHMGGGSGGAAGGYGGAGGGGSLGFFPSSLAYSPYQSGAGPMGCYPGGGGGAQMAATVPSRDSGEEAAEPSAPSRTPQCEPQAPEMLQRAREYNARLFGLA

[3] = HTS, known drugs, 10 µM, read-out: RelA HTS % Inhibition @ 10 µM
[4] = kinetic assay, 60 min-0 min, 10 µM, read-out: Kinetic assay @ 10 µM RelA % Inhibition ΔRFU(60 min-0 min)
[5] = retest, Run1, 10 µM, read-out: RelA Retest % Inhibition @ 10 µM Run1
[6] = retest, Run2, 10 µM, read-out: RelA Retest % Inhibition @ 10 µM Run2
[7] = retest, average of Run1 and Run2, 10 µM, read-out: RelA Retest % Inhibition @ 10 µM Avg.
[8] = HTS, known drugs, 10 µM, read-out: p52 HTS % Inhibition @ 10 µM
[9] = kinetic assay, 60 min-0 min, 10 µM, read-out: Kinetic assay @ 10 µM p52 % Inhibition ΔRFU(60 min-0 min)
[10] = retest, Run1, 10 µM, read-out: p52 Retest % Inhibition @ 10 µM Run1
[11] = retest, Run2, 10 µM, read-out: p52 Retest % Inhibition @ 10 µM Run2
[12] = retest, average of Run1 and Run2, 10 µM, read-out: p52 Retest % Inhibition @ 10 µM Avg.

## CC(C)(O/N=C(\C(=O)N[C@@H]1C(=O)N2C(C(=O)[O-])=C(C[n+]3ccccc3)CS[C@H]12)c1csc(N)n1)C(=O)O [CEFTAZIDIME]
[1]; [3]
  inhibition at 10 µM: 96.9%
[1]; [4]
  inhibition at 10 µM: 94%
[1]
  Hit Judgement of: RelA: 1
[1]; [5]
  inhibition at 10 µM: 91.9%
[1]; [6]
  inhibition at 10 µM: 106%
[1]; [7]
  inhibition at 10 µM: 98.9%
[2]; [8]
  inhibition at 10 µM: 98%
[2]; [9]
  inhibition at 10 µM: 92%
[2]
  Hit Judgement of: p52: 1
[2]; [10]
  inhibition at 10 µM: 78.9%
[2]; [11]
  inhibition at 10 µM: 110%
[2]; [12]
  inhibition at 10 µM: 94.2%

## Cc1[nH]c(/C=C2\C(=O)Nc3ccc(S(=O)(=O)Cc4c(Cl)cccc4Cl)cc32)c(C)c1C(=O)N1CCC[C@@H]1CN1CCCC1 [PHA 665752]
[1]; [3]
  inhibition at 10 µM: 101%
[1]; [4]
  inhibition at 10 µM: -27%
[1]; [5]
  inhibition at 10 µM: 88.6%
[1]; [6]
  inhibition at 10 µM: 99.1%
[1]; [7]
  inhibition at 10 µM: 93.9%
[2]; [8]
  inhibition at 10 µM: 103%
[2]; [9]
  inhibition at 10 µM: -31%
[2]; [10]
  inhibition at 10 µM: 88%
[2]; [11]
  inhibition at 10 µM: 99.8%
[2]; [12]
  inhibition at 10 µM: 93.9%

## OCCN(CCO)c1nc(N2CCCCC2)c2nc(N(CCO)CCO)nc(N3CCCCC3)c2n1 [Dipyridamole]
[1]; kinetic assay, 60 min-0 min
  Kinetic assay RelA % Inhibition ΔRFU(60 min-0 min): -4.24% and -5.31%
[2]; kinetic assay, 60 min-0 min
  Kinetic assay p52 % Inhibition ΔRFU(60 min-0 min): -0.806% and -5%

## CC(=O)Oc1cccc2c1C(=O)c1c(OC(C)=O)cc(C(=O)O)cc1C2=O [DIACERIN]
[1]; kinetic assay, 60 min-0 min
  Kinetic assay RelA % Inhibition ΔRFU(60 min-0 min): 3%
[2]; kinetic assay, 60 min-0 min
  Kinetic assay p52 % Inhibition ΔRFU(60 min-0 min): 2.21%

## Cc1cc(-c2ccc(/N=N/c3ccc4c(S(=O)(=O)O)cc(S(=O)(=O)O)c(N)c4c3O)c(C)c2)ccc1/N=N/c1ccc2c(S(=O)(=O)O)cc(S(=O)(=O)O)c(N)c2c1O [EVANS BLUE]
[1]; [3]
  inhibition at 10 µM: 78.1%
[1]; [4]
  inhibition at 10 µM: 4.59%
[1]; [5]
  inhibition at 10 µM: 70.4%
[1]; [6]
  inhibition at 10 µM: 77.2%
[1]; [7]
  inhibition at 10 µM: 73.8%
[2]; [8]
  inhibition at 10 µM: 24%
[2]; [9]
  inhibition at 10 µM: 2.44%
[2]; [10]
  inhibition at 10 µM: 62.3%
[2]; [11]
  inhibition at 10 µM: 35.8%
[2]; [12]
  inhibition at 10 µM: 49%

## COC(=O)[C@@H]1c2cc3c(c(O)c2[C@@H](O[C@@H]2O[C@@H](C)[C@H](OC)[C@@](C)(OC)[C@H]2OC)C[C@]1(C)O)C(=O)c1c(O)cc2c(c1C3=O)O[C@@H]1O[C@@]2(C)[C@H](O)[C@@H](N(C)C)[C@@H]1O [Nogalamycin]
[1]; HTS, 5 µg/mL, NPDepo hits, read-out: RelA HTS % Inhibition @ 5 µg/mL
  inhibition at 5 µg/mL: 128%
[1]; Retest Run1, 5 µg/mL, read-out: RelA Retest % Inhibition @ 5 µg/mL Run1
  inhibition at 5 µg/mL: 138%
[1]; Retest Run2, 5 µg/mL, read-out: RelA Retest % Inhibition @ 5 µg/mL Run2
  inhibition at 5 µg/mL: 146%
[1]; Retest average of Run1 and Run2, 5 µg/mL, read-out: RelA Retest % Inhibition @ 5 µg/mL Avg.
  inhibition at 5 µg/mL: 142%
[1]; kinetic assay, 5 µg/mL, ΔRFU 60 min-0 min, read-out: Kinetic assay @ 5 µg/mL RelA Inhibition % ΔRFU(60 min-0 min)
  inhibition at 5 µg/mL: -20%
[2]; HTS, 5 µg/mL, NPDepo hits, read-out: p52 HTS % Inhibition @ 5 µg/mL
  inhibition at 5 µg/mL: 127%
[2]; Retest Run1, 5 µg/mL, read-out: p52 Retest % Inhibition @ 5 µg/mL Run1
  inhibition at 5 µg/mL: 132%
[2]; Retest Run2, 5 µg/mL, read-out: p52 Retest % Inhibition @ 5 µg/mL Run2
  inhibition at 5 µg/mL: 145%
[2]; Retest average of Run1 and Run2, 5 µg/mL, read-out: p52 Retest % Inhibition @ 5 µg/mL Avg.
  inhibition at 5 µg/mL: 139%
[2]; kinetic assay, 5 µg/mL, ΔRFU 60 min-0 min, read-out: Kinetic assay @ 5 µg/mL p52 Inhibition % ΔRFU(60 min-0 min)
  inhibition at 5 µg/mL: -13%

## Cl[C@H]1[C@H](Cl)[C@@H](Cl)[C@@H](Cl)[C@H](Cl)[C@H]1Cl [LINDANE]
[1]; [3]
  inhibition at 10 µM: 29.3%
[1]; [4]
  inhibition at 10 µM: -1.86%
[1]; [5]
  inhibition at 10 µM: 6.1%
[1]; [6]
  inhibition at 10 µM: 5.6%
[1]; [7]
  inhibition at 10 µM: 5.9%
[2]; [8]
  inhibition at 10 µM: 31.4%
[2]; [9]
  inhibition at 10 µM: -1.69%
[2]; [10]
  inhibition at 10 µM: 5.5%
[2]; [11]
  inhibition at 10 µM: 6.4%
[2]; [12]
  inhibition at 10 µM: 5.9%

## CC1(C)C(=O)N=C2C1=C(O)C(=O)c1ccccc12 [BVT 948]
[1]; HTS, known drugs
  RelA HTS % Inhibition: 34.4%
[1]
  RelA Retest % Inhibition Run1: 48.4%
  RelA Retest % Inhibition Run2: 67.6%
  RelA Retest % Inhibition Avg.: 58.0%
  Hit Judgement of: RelA: 1
[1]; kinetic assay, 60 min-0 min
  Kinetic assay RelA % Inhibition ΔRFU(60 min-0 min): 21%
[2]; HTS, known drugs
  p52 HTS % Inhibition: 38.2%
[2]
  p52 Retest % Inhibition Run1: 22.0%
  p52 Retest % Inhibition Run2: 33.7%
  p52 Retest % Inhibition Avg.: 27.8%
  Hit Judgement of: p52: 1
[2]; kinetic assay, 60 min-0 min
  Kinetic assay p52 % Inhibition ΔRFU(60 min-0 min): 7%

## O=C1C(Cl)=C(NCCN2CCOCC2)C(=O)c2ncccc21 [NSC 663284]
[1]; HTS, known drugs
  RelA HTS % Inhibition: 37.5%
[1]
  RelA Retest % Inhibition Run1: 37.2%
  RelA Retest % Inhibition Run2: 41.8%
  RelA Retest % Inhibition Avg.: 39.5%
  Hit Judgement of: RelA: 1
[1]; kinetic assay, 60 min-0 min
  Kinetic assay RelA % Inhibition ΔRFU(60 min-0 min): 9%
[2]; HTS, known drugs
  p52 HTS % Inhibition: 39.5%
[2]
  p52 Retest % Inhibition Run1: 24.9%
  p52 Retest % Inhibition Run2: 28.6%
  p52 Retest % Inhibition Avg.: 26.7%
  Hit Judgement of: p52: 1
[2]; kinetic assay, 60 min-0 min
  Kinetic assay p52 % Inhibition ΔRFU(60 min-0 min): 1.64%

## COc1cc2c(cc1OC)-c1cc3nc4ccccc4nc3n1C(C)(C)C2 [YM 90709]
[1]; kinetic assay, 60 min-0 min
  Kinetic assay RelA % Inhibition ΔRFU(60 min-0 min): -3.67%
[2]; kinetic assay, 60 min-0 min
  Kinetic assay p52 % Inhibition ΔRFU(60 min-0 min): -1.43%
